Data taken from patent publication US10942159B2, “Product sustainability scorecard” (Symrise AG, priority 2016, dated 2021).

How the values were obtained:
[1] = Product Sustainability Scorecard: process safety with regard to human toxicity (Product Tox score from GHS H-phrases and supplier score); conditions: consolidated scorecard score, normalized scale 0 to 100 without dimension
From the text: (§1) Hazard statements form part of the ‘Globally Harmonized System of Classification and Labelling of Chemicals’ (GHS). They are intended to form a set of standardized phrases about the hazards of chemical substances and mixtures.
(§2) H200: Physical Hazards (=Toxicity and Eco Toxicity)
H300: Health Hazards (=Toxicity)
(§3) Scheme 4 and 5: Scoring • STEP 1 Evaluation of the ‘(Eco) Toxicity Material Score’ and ‘Critical By-Product Score’ of each reactant and its potential by-products based on the safety according to material properties:
(§4) • STEP 2 Evaluation of the ‘(Eco) Tox Supplier Score’ of each reactant based on process safety according to chemical handling (see appendix for further information):
(§5) • STEP 3 Calculation of the overall ‘(Eco) Tox Score’ of each reactant and the final product. […] If the supplier score is better, it outweighs the material score—following the assumption that a safe and controlled production environment is able to avert the risks of hazardous materials: MAX(‘(Eco) Tox Material Score’;‘(Eco) Tox Supplier Score’)=(Eco) Tox Score • (ii) Composed products: For composed products the (Eco) Tox Score combines the hazard and supplier information of the composed product itself (calculated as above) with the (Eco) Tox Score of its reactants. […]
The score for the overall human toxicity S(HTOX) is calculated according to the following equation (4): S(HTOX)=⅔*MAX(Ma;Pa)+⅓*(Mb*Cb)+ . . . […]

[2] = Product Sustainability Scorecard: process safety with regard to ecological toxicity (Product EcoTox score from GHS H-phrases and supplier score); conditions: consolidated scorecard score, normalized scale 0 to 100 without dimension
From the text: as §1, §2
H400: Environmental Hazards (=Eco Toxicity)
as §3, §4, §5

[3] = Product Sustainability Scorecard: biodegradability score according to OECD Method 301/302; conditions: consolidated scorecard score, scale 0 to 100; score equals % biodegradation after 28-day OECD 301 test
Description: Biodegradation is one of the most important factors in assessing the environmental fate of chemicals. Biodegradation is the chemical dissolution of materials by bacteria, fungi, or other biological means. Biodegradability is evaluated according to the OECD Method 301/302 or equivalent. The tests of the OECD test series 301 (A-F) verify whether a substance is able for complete biodegradation under aerobic conditions. Different test methods are available for well or poorly soluble as well as volatile substances. The test usually takes 28 days. Test items must reach 60% biodegradation within 10 days to be classified as ‘ready biodegradable’.
Scheme 1: Scoring • STEP 1 Evaluation of the “Biodegradability Score” of the fragrance raw material based on the following scoring system
The score for biodegradability of the compound or the compounds is evaluated according to OECD Method 301/302 or equivalent.

44_Dihydro Myrcenol [44DHM]
Product Tox [1]: 80.38 | Product EcoTox [2]: 87.73 | Biodegradability [3]: 100.00
